Broadly, the IC50 is the concentration needed to halve the response being measured.

In one series the test system is Colo320 cells. The experiment in a line: Apoptosis assay, Annexin-V-FITC/PI flow cytometry. The note with it: 3 h induction. As for the experimental part:
An apoptosis assay was performed by flow cytometry via the analysis of multidrug-resistant Colo320 cells stained with Annexin-V-FITC and propidium iodide (PI).
Colo320 cells were treated at the indicated concentration of the compounds. The dual parametric dot plots combining Annexin-V (FL1) and PI (FL3) fluorescence show the viable cell population in the lower left quadrant Annexin-V–/PI– (Q4), the early apoptotic cells in the lower right quadrant Annexin-V+/PI– (Q3), and the late apoptotic and necrotic cells in the upper right quadrant Annexin-V+/PI+ (Q2).
The assay was carried out for selected compounds using an Annexin V-FITC Apoptosis Detection Kit (cat. no. APOAF-50TST) from Sigma according to the manufacturer’s instructions. The concentration of the Colo320 cell suspension was adjusted to approximately 0.5 × 10^6 cells/mL in an RPMI 1640 medium, and the cell suspension was distributed in 1 mL of aliquots into a 24-well plate and then incubated overnight at 37 °C and 5% CO2. On the following day, the medium was removed and replaced by 1 mL of RPMI medium containing the compounds except the control samples. […] After the incubation period, the samples were washed with PBS and fresh RPMI 1640 medium was added to the samples. The cells were incubated overnight at 37 °C and 5% CO2. The next day, 200 μL of 0.25% Trypsin (Trypsin-Versen) was added to the samples until cells appeared detached followed by the addition of 400 μL of RPMI 1640 medium supplemented with 10% bovine serum. The cells were collected in Eppendorf tubes and centrifuged at 2000g for 2 min. The harvested cells were resuspended in fresh serum-free RPMI 1640 culture medium. After this step, the apoptosis assay was carried out according to the instructions of the manufacturer. The fluorescence was analyzed immediately using a ParTec CyFlow flow cytometer (Partec GmbH, Münster, Germany).
• Apoptosis and DNA binding studies […]
A general note: A flow cytometer gives signals particle by particle.

For series [1], the system named is HCT-116 colon carcinoma cells. The experiment in a line: MTT assay, 96 h. The series is classed as cell-based, human. An excerpt: The oncosuppressor protein p53 controls the cellular response to DNA strand breaks induced by cytotoxic drugs or by radiation.[58] The p53 protein may enhance cell chemosensitivity by promoting apoptosis via different mechanisms including activation of proapoptotic genes such as bax and repression of antiapoptotic genes such as bcl-2 or in contrast increase chemoresistance by promoting p21-mediated and p21-independent growth arrest and DNA repair and by activation of antiapoptotic genes such as bcl-x. There is strong evidence that the modulation of drug sensitivity by p53 may be both drug- and cell type-specific.[59] […] Accordingly, essential differences in chemosensitivity were observed between cells with wild-type p53 gene and cells with knocked out p53 gene by homologous recombination.[60]
Human colonic adenocarcinoma cell lines Colo 205 doxorubicin-sensitive (ATCC-CCL-222) and Colo 320/MDR-LRP multidrug resistant over-expressing ABCB1 (MDR1)-LRP (ATCC-CCL-220.1) were purchased from LGC Promochem, Teddington, UK. The cells were cultured in an RPMI 1640 medium supplemented with 10% heat-inactivated fetal bovine serum, 2 mM L-glutamine, 1 mM Na-pyruvate, and 10 mM HEPES. The semi-adherent human colon cancer cells were detached with Trypsin-Versene (EDTA) solution for 5 min at 37 °C. An MRC-5 human embryonal lung fibroblast cell line (ATCC CCL-171) was purchased from LGC Promochem, Teddington, UK. The cells were cultured in Eagle’s minimal essential medium (EMEM, containing 4.5 g L^–1 glucose) supplemented with a non-essential amino acid mixture, a selection of vitamins, and 10% heat-inactivated fetal bovine serum. The HCT-116 colon carcinoma cells and isogenic p53-knock-out subline were a gift of Prof. Bert Vogelstein from The Johns Hopkins Oncology Center. Cells were cultured in McCoy’s 5A medium supplemented with 10% heat-inactivated fetal bovine serum and 4 mM L-glutamine. All cell lines were incubated at 37 °C, in a 5% CO2, 95% air atmosphere.
MRC-5 non-cancerous human embryonic lung fibroblast and human colonic adeno-carcinoma cell lines (doxorubicin-sensitive Colo 205 and multidrug resistant Colo 320 colonic adenocarcinoma cells) were used to determine the effect of compounds on cell growth. The effects of increasing concentrations of compounds on cell growth were tested in 96-well flat-bottomed microtiter plates. The compounds were dissolved in DMSO and stock solutions of 10 mM were prepared. These were further diluted in the appropriate cell culture medium by twofold serial dilution starting from 100 or 10 μM for the compounds. The adherent human embryonal lung fibroblast cells were cultured in 96-well flat-bottomed microtiter plates using EMEM supplemented with 10% heat-inactivated fetal bovine serum. The density of the cells was adjusted to 1 × 10^4 cells in 100 μL per well, the cells were seeded for 24 h at 37 °C, 5% CO2, then the medium was removed from the plates containing the cells, and the dilutions of compounds previously made in a separate plate were added to the cells in 200 μL. In the case of the colonic adenocarcinoma cells, the twofold serial dilutions of compounds were prepared in 100 μL of RPMI 1640, horizontally. The semi-adherent colonic adenocarcinoma cells were treated with Trypsin-Versene (EDTA) solution. They were adjusted to a density of 1 × 10^4 cells in 100 μL of RPMI 1640 medium and were added to each well, with the exception of the medium control wells. […]

Series [2] can be described thus: Aqueous stability in HEPES and PBS buffer by UV–vis. The note with it: pH 7.40, 10 mM HEPES or PBS, several hours. The format is physicochemical. As for the experimental part:
Prior to the biological assays, the aqueous stability of selected compounds (HL^4, 4, HL^8, and 8) was measured as a function of time by UV–vis spectrophotometry at pH = 7.40 in 10 mM HEPES in PBS and in blood serum diluted by factor 3 (dilutions were made in HEPES and in PBS as well). […] This process took several hours, and it was in all cases less pronounced in the PBS buffer than in the HEPES medium.
(§1) Aqueous stability of 4, 8, and HL^4 was investigated in phosphate-buffered saline (PBS) and 10 mM HEPES buffers and in three-times diluted blood serum (Sigma Aldrich, from human male AB plasma) at pH = 7.40. The concentration of the compounds was between 5 and 10 μM. Blood serum was filtered on a 1.25 μm polyethersulfone membrane syringe filter and diluted with 10 mM HEPES or PBS buffer.

Series [3] in a line: Stability in diluted blood serum by UV–vis. The note with it: pH 7.40, diluted with HEPES or PBS. The series is classed as in vitro ADME, human. Here is the method:
Measurements with diluted serum show a more elaborate picture. […] The new band cannot be undoubtedly attributed to the liberation of ligand HL^8.
as §1

Structures are written as SMILES.

Turning to `CC(=NNC1=NCc2ccccc2-c2c1[nH]c1ccc(Br)cc21)c1ccc(CN2CCOCC2)cn1.[Cl][Cu][Cl]` [compound 4, CuCl2(HL^4)·0.5H2O], in the series with Colo320 cells (0.25 µM), the “Cell death % Q1” value came to 5.10%; the “Early apoptosis % Q3” value amounted to 7.48%; the “Late apoptosis and necrosis % Q2” value worked out at 12.7%. For the same molecule, in the series with Colo320 cells (0.5 µM), the “Cell death % Q1” value came to 4.76%; the “Early apoptosis % Q3” value is 5.18%; the “Late apoptosis and necrosis % Q2” value is reported as 11.6%. In addition, the IC50 in series [1] came to 130 nM. In series [2], the “Behaviour in buffer solutions over time” value was “slow precipitation”. Also, the “Behaviour in blood serum diluted by factor 3” value in series [3] is on record as “a similar behavior was observed, even though changes were smaller”.

Consider `CC(=NNc1nc2ccccc2c2c1[nH]c1ccc(Br)cc12)c1ccc(CN2CCOCC2)cn1.[Cl][Cu][Cl]` [compound 8, CuCl2(HL^8)·H2O], for which, in the series with Colo320 cells (0.5 µM), the “Cell death % Q1” value stood at 4.52%; the “Early apoptosis % Q3” value came out at 6.01%; the “Late apoptosis and necrosis % Q2” value is reported as 12.1%. Besides, in the series with Colo320 cells (2 µM), the “Cell death % Q1” value came to 1.76%; the “Early apoptosis % Q3” value amounted to 6.91%; the “Late apoptosis and necrosis % Q2” value is 6.97%. Besides, the IC50 in series [1] is 50 nM. Further, in series [2], the “Behaviour in buffer solutions over time” value is listed as “slow precipitation”. Also, the “Behaviour in blood serum diluted by factor 3” value in series [3] was “partial decomposition of the complex”.

The values above are taken from publication PMC8842277, “Highly Antiproliferative Latonduine and Indolo[2,3-c]quinoline Derivatives: Complex Formation with Copper(II) Markedly Changes the Kinase Inhibitory Profile” (Journal of Medicinal Chemistry, 2022).
